From US9326516B2, “Molecules having certain pesticidal utilities, and intermediates, compositions, and processes related thereto” (Dow AgroSciences LLC, priority 2014, dated 2016)

How the values were obtained:
Format in all cases: in vivo
[1] = test system: Beet Armyworm (Spodoptera exigua, LAPHEG); assay: Bioassay on Beet Armyworm (BAW), 128-well diet tray assay; settings: 168 h, 50 μg/cm^2 on artificial diet, second instar BAW larvae, 25° C., five to seven days, average of eight wells, read-out: BAW % Control (or Mortality) rating
Description: (§1) Certain molecules disclosed in this document were tested against BAW and CEW using procedures described in the following examples. In the reporting of the results, the “BAW & CL Rating Table” was used (See Table Section).
Bioassays on BAW were conducted using a 128-well diet tray assay. one to five second instar BAW larvae were placed in each well (3 mL) of the diet tray that had been previously filled with 1 mL of artificial diet to which 50 μg/cm^2 of the test compound (dissolved in 50 μL of 90:10 acetone-water mixture) had been applied (to each of eight wells) and then allowed to dry. Trays were covered with a clear self-adhesive cover and held at 25° C., 14:10 light-dark for five to seven days. Percent mortality was recorded for the larvae in each well; activity in the eight wells was then averaged. The results are indicated in the table entitled “Table ABC: Biological Results” (See Table Section).

[2] = test system: Cabbage Looper (Trichoplusia ni, TRIPNI); assay: Bioassay on Cabbage Looper (CL), 128-well diet tray assay; settings: 168 h, 50 μg/cm^2 on artificial diet, second instar CL larvae, 25° C., five to seven days, average of eight wells, read-out: CL % Control (or Mortality) rating
Description: as §1
Bioassays on CL were conducted using a 128-well diet tray assay, one to five second instar CL larvae were placed in each well (3 mL) of the diet tray that had been previously filled with 1 mL of artificial diet to which 50 μg/cm^2 of the test compound (dissolved in 50 μL of 90:10 acetone-water mixture) had been applied (to each of eight wells) and then allowed to dry. Trays were covered with a clear self-adhesive cover and held at 25° C., 14:10 light-dark for five to seven days. Percent mortality was recorded for the larvae in each well; activity in the eight wells was then averaged. The results are indicated in the table entitled “Table ABC: Biological Results” (See Table Section).

[3] = test system: Green Peach Aphid (Myzus persicae, MYZUPE); assay: Bioassay on Green Peach Aphid (GPA), foliar spray on cabbage seedlings; settings: 72 h, 200 ppm spray on infested cabbage seedlings, graded after three days, Abbott corrected % control, read-out: GPA % Control (or Mortality) rating
Description: Certain molecules disclosed in this document were tested against GPA using procedures described in the following example. In the reporting of the results, the “GPA Rating Table” was used (See Table Section).
Cabbage seedlings grown in 3-inch pots, with 2-3 small (3-5 cm) true leaves, were used as test substrate. The seedlings were infested with 20-50 GPA (wingless adult and nymph stages) one day prior to chemical application. Four pots with individual seedlings were used for each treatment. Test compounds (2 mg) were dissolved in 2 mL of acetone/methanol (1:1) solvent, forming stock solutions of 1000 ppm test compound. The stock solutions were diluted 5× with 0.025% Tween 20 in water to obtain the solution at 200 ppm test compound. A hand-held aspirator-type sprayer was used for spraying a solution to both sides of […] leaves until runoff. Reference plants (solvent check) were sprayed with the diluent only containing 20% by volume of acetone/methanol (1:1) solvent. Treated plants were held in a holding room for three days at approximately 25° C. and ambient relative humidity (RH) prior to grading. Evaluation was conducted by counting the number of live aphids per plant under a microscope. Percent Control was measured by using Abbott's correction formula (W. S. Abbott, “A Method of Computing the Effectiveness of an Insecticide” J. Econ. Entomol. 18 (1925), pp. 265-267) as follows. Corrected % Control=100*(X−Y)/X where X=No. of live aphids on solvent check plants and Y=No. of live aphids on treated plants

Compound: FC(F)(F)Oc1ccc(-n2cnc(-c3ccc(NC4=NC(c5cccc(Cl)c5)CS4)cc3)n2)cc1 (stereo not drawn) [Compound F29, 4-(3-Chlorophenyl)-N-(4-(1-(4-(trifluoromethoxy)phenyl)-1H-1,2,4-triazol-3-yl)phenyl)-4,5-dihydrothiazol-2-amine]
- mortality at 50 µg/cm2 [1]: 50 to 100%
- mortality at 50 µg/cm2 [2]: 50 to 100%
- mortality at 200 ppm [3]: 0%

Compound: FC(F)(F)Oc1ccc(-n2cnc(-c3ccc(NC4=NC(c5ccc(Cl)cc5)CS4)cc3)n2)cc1 (stereo not drawn) [Compound F25, 4-(4-Chlorophenyl)-N-(4-(1-(4-(trifluoromethoxy)phenyl)-1H-1,2,4-triazol-3-yl)phenyl)-4,5-dihydrothiazol-2-amine]
- mortality at 50 µg/cm2 [1]: 0%
- mortality at 50 µg/cm2 [2]: 0%
- mortality at 200 ppm [3]: 0%

Compound: FC(F)(F)Oc1ccc(-n2cnc(-c3ccc(NC4=NC(c5cccc(Cl)c5)CO4)cc3)n2)cc1 (stereo not drawn) [Compound F10, 4-(3-Chlorophenyl)-N-(4-(1-(4-(trifluoromethoxy)phenyl)-1H-1,2,4-triazol-3-yl)phenyl)-4,5-dihydrooxazol-2-amine]
- mortality at 50 µg/cm2 [1]: 0%
- mortality at 50 µg/cm2 [2]: 50 to 100%
- mortality at 200 ppm [3]: 0%

Compound: FC(F)(F)Oc1ccc(-n2cnc(-c3ccc(NC4=NC(c5ccc(Br)cc5)CO4)cc3)n2)cc1 (stereo not drawn) [Compound F9, 4-(4-Bromophenyl)-N-(4-(1-(4-(trifluoromethoxy)phenyl)-1H-1,2,4-triazol-3-yl)phenyl)-4,5-dihydrooxazol-2-amine]
- mortality at 50 µg/cm2 [1]: 50 to 100%
- mortality at 50 µg/cm2 [2]: 50 to 100%
- mortality at 200 ppm [3]: 80 to 100%

Compound: FC(F)(F)c1ccc(-n2cnc(-c3ccc(NC4=NC(c5cccc(Cl)c5)CO4)cc3)n2)cc1 (stereo not drawn) [Compound F18, 4-(3-Chlorophenyl)-N-(4-(1-(4-(trifluoromethyl)phenyl)-1H-1,2,4-triazol-3-yl)phenyl)-4,5-dihydrooxazol-2-amine]
- mortality at 50 µg/cm2 [1]: 50 to 100%
- mortality at 50 µg/cm2 [2]: 50 to 100%
- mortality at 200 ppm [3]: 0%

Compound: FC(F)(F)c1ccc(-n2cnc(-c3ccc(NC4=NC(c5ccc(Br)cc5)CS4)cc3)n2)cc1 (stereo not drawn) [Compound F37]
- mortality at 50 µg/cm2 [1]: 0%
- mortality at 50 µg/cm2 [2]: 0%
- mortality at 200 ppm [3]: 0%

Compound: FC(F)(F)c1ccc(-n2cnc(-c3ccc(NC4=NC(c5cccc(Cl)c5)CS4)cc3)n2)cc1 (stereo not drawn) [Compound F40, 4-(3-Chlorophenyl)-N-(4-(1-(4-(trifluoromethyl)phenyl)-1H-1,2,4-triazol-3-yl)phenyl)-4,5-dihydrothiazol-2-amine]
- mortality at 50 µg/cm2 [1]: 50 to 100%
- mortality at 50 µg/cm2 [2]: 50 to 100%
- mortality at 200 ppm [3]: 0 to 80%

Compound: FC(F)(F)c1ccc(-n2cnc(-c3ccc(NC4=NC(c5ccc(Cl)cc5)CS4)cc3)n2)cc1 (stereo not drawn) [Compound F36, 4-(4-Chlorophenyl)-N-(4-(1-(4-(trifluoromethyl)phenyl)-1H-1,2,4-triazol-3-yl)phenyl)-4,5-dihydrothiazol-2-amine]
- mortality at 50 µg/cm2 [1]: 0%
- mortality at 50 µg/cm2 [2]: 50 to 100%
- mortality at 200 ppm [3]: 0%

Compound: FC(F)(F)c1ccc(-n2cnc(-c3ccc(NC4=NC(c5ccccc5)CO4)cc3)n2)cc1 (stereo not drawn) [Compound F14, 4-Phenyl-N-(4-(1-(4-(trifluoromethyl)phenyl)-1H-1,2,4-triazol-3-yl)phenyl)-4,5-dihydrooxazol-2-amine]
- mortality at 50 µg/cm2 [1]: 0%
- mortality at 50 µg/cm2 [2]: 0%
- mortality at 200 ppm [3]: 0%

Compound: FC(F)(F)c1ccc(C2CSC(Nc3ccc(-c4ncn(-c5ccc(C(F)(F)F)cc5)n4)cc3)=N2)cc1 (stereo not drawn) [Compound F38, 4-(4-(Trifluoromethyl)phenyl)-N-(4-(1-(4-(trifluoromethyl)phenyl)-1H-1,2,4-triazol-3-yl)phenyl)-4,5-dihydrothiazol-2-amine]
- mortality at 50 µg/cm2 [1]: 0 to 50%
- mortality at 50 µg/cm2 [2]: 50 to 100%
- mortality at 200 ppm [3]: 0%

Compound: FC(F)(F)Oc1ccc(C2CSC(Nc3ccc(-c4ncn(-c5ccc(OC(F)(F)F)cc5)n4)cc3)=N2)cc1 (stereo not drawn) [Compound F28, 4-(4-(Trifluoromethoxy)phenyl)-N-(4-(1-(4-(trifluoromethoxy)phenyl)-1H-1,2,4-triazol-3-yl)phenyl)-4,5-dihydrothiazol-2-amine]
- mortality at 50 µg/cm2 [1]: 0 to 50%
- mortality at 50 µg/cm2 [2]: 0%
- mortality at 200 ppm [3]: 0%

Compound: Cc1ccc(C2COC(Nc3ccc(-c4ncn(-c5ccc(OC(F)(F)F)cc5)n4)cc3)=N2)cc1 (stereo not drawn) [Compound F4, 4-(p-Tolyl)-N-(4-(1-(4-(trifluoromethoxy)phenyl)-1H-1,2,4-triazol-3-yl)phenyl)-4,5-dihydrooxazol-2-amine]
- mortality at 50 µg/cm2 [1]: 0%
- mortality at 50 µg/cm2 [2]: 50 to 100%
- mortality at 200 ppm [3]: 0%

Compound: FC(F)(F)Oc1ccc(C2CSC(Nc3ccc(-c4ncn(-c5ccc(C(F)(F)F)cc5)n4)cc3)=N2)cc1 (stereo not drawn) [Compound F39, 4-(4-(Trifluoromethoxy)phenyl)-N-(4-(1-(4-(trifluoromethyl)phenyl)-1H-1,2,4-triazol-3-yl)phenyl)-4,5-dihydrothiazol-2-amine]
- mortality at 50 µg/cm2 [1]: 0%
- mortality at 50 µg/cm2 [2]: 0%
- mortality at 200 ppm [3]: 0%

Compound: FC(F)(F)Oc1ccc(-n2cnc(-c3ccc(NC4=NC(c5ccc(C(F)(F)F)cc5)CS4)cc3)n2)cc1 (stereo not drawn) [Compound F27, N-(4-(1-(4-(Trifluoromethoxy)phenyl)-1H-1,2,4-triazol-3-yl)phenyl)-4-(4-(trifluoromethyl)phenyl)-4,5-dihydrothiazol-2-amine]
- mortality at 50 µg/cm2 [1]: 0%
- mortality at 50 µg/cm2 [2]: 50 to 100%
- mortality at 200 ppm [3]: 0%

Compound: FC(F)(F)c1ccc(-n2cnc(-c3ccc(NC4=NC(c5ccccc5Cl)CO4)cc3)n2)cc1 (stereo not drawn) [Compound F19, 4-(2-Chlorophenyl)-N-(4-(1-(4-(trifluoromethyl)phenyl)-1H-1,2,4-triazol-3-yl)phenyl)-4,5-dihydrooxazol-2-amine]
- mortality at 50 µg/cm2 [1]: 0%
- mortality at 50 µg/cm2 [2]: 50 to 100%
- mortality at 200 ppm [3]: 0%

Compound: COc1ccc(C2COC(Nc3ccc(-c4ncn(-c5ccc(C(F)(F)F)cc5)n4)cc3)=N2)cc1 (stereo not drawn) [Compound F12, 4-(4-Methoxyphenyl)-N-(4-(1-(4-(trifluoromethyl)phenyl)-1H-1,2,4-triazol-3-yl)phenyl)-4,5-dihydrooxazol-2-amine]
- mortality at 50 µg/cm2 [1]: 0%
- mortality at 50 µg/cm2 [2]: 0%
- mortality at 200 ppm [3]: 0%

Compound: COc1ccc(C2CSC(Nc3ccc(-c4ncn(-c5ccc(C(F)(F)F)cc5)n4)cc3)=N2)cc1 (stereo not drawn) [Compound F32, 4-(4-Methoxyphenyl)-N-(4-(1-(4-(trifluoromethyl)phenyl)-1H-1,2,4-triazol-3-yl)phenyl)-4,5-dihydrothiazol-2-amine]
- mortality at 50 µg/cm2 [1]: 0%
- mortality at 50 µg/cm2 [2]: 0%
- mortality at 200 ppm [3]: 0%

Compound: Fc1ccc(C2CSC(Nc3ccc(-c4ncn(-c5ccc(C(F)(F)F)cc5)n4)cc3)=N2)cc1 (stereo not drawn) [Compound F35, 4-(4-Fluorophenyl)-N-(4-(1-(4-(trifluoromethyl)phenyl)-1H-1,2,4-triazol-3-yl)phenyl)-4,5-dihydrothiazol-2-amine]
- mortality at 50 µg/cm2 [1]: 0%
- mortality at 50 µg/cm2 [2]: 50 to 100%
- mortality at 200 ppm [3]: 0%

Compound: FC(F)(F)Oc1ccc(-n2cnc(-c3ccc(NC4=NC(c5ccccc5Cl)CS4)cc3)n2)cc1 (stereo not drawn) [Compound F30, 4-(2-Chlorophenyl)-N-(4-(1-(4-(trifluoromethoxy)phenyl)-1H-1,2,4-triazol-3-yl)phenyl)-4,5-dihydrothiazol-2-amine]
- mortality at 50 µg/cm2 [1]: 50 to 100%
- mortality at 50 µg/cm2 [2]: 50 to 100%
- mortality at 200 ppm [3]: 0%
